In the NIST ThermoML archive (doi:10.1021/acs.jced.8b00387):
Numbers after ± are expanded uncertainties.

Test: xn = mol fraction of the nth substance listed
Settings: for viscosity / mass density / speed of sound: 102 kPa, Liquid; for viscosity: Concentric cylinders viscometry; for mass density: Vibrating tube method; for speed of sound: Frequency=3 MHz, Single path-length method; for surface tension liquid-gas: 295 K, Pendant drop shape

CC(CC(C)(C)C)CC(C)(C)CC(C)(C)C (stereo not given) [2,2,4,4,6,8,8-heptamethylnonane] + CCCCCCc1ccccc1
Settings | mass density [kg/m3] | speed of sound [m/s] | viscosity [mPa·s]
253.15 K, x2 = 0.1015 | 816.6 ± 2 | – | 11.82 ± 0.08
253.15 K, x2 = 0.2005 | 822.2 ± 2 | – | 10.18 ± 0.08
253.15 K, x2 = 0.2999 | 828 ± 2 | – | 9.04 ± 0.08
253.15 K, x2 = 0.4001 | 834.5 ± 2 | – | 7.96 ± 0.07
253.15 K, x2 = 0.4996 | 841.5 ± 2 | – | 7.08 ± 0.07
253.15 K, x2 = 0.6 | 849.4 ± 2 | – | 6.37 ± 0.07
253.15 K, x2 = 0.6999 | 857.7 ± 2 | – | 5.78 ± 0.07
253.15 K, x2 = 0.8 | 867.1 ± 2 | – | 5.3 ± 0.07
253.15 K, x2 = 0.9 | 877.1 ± 2 | – | 4.94 ± 0.07
288.15 K, x2 = 0.1015 | 792.77 ± 0.72 | 1311.3 ± 0.9 | –
288.15 K, x2 = 0.2005 | 798.05 ± 0.72 | 1317.6 ± 0.9 | –
288.15 K, x2 = 0.2999 | 803.73 ± 0.72 | 1324.6 ± 1 | –
288.15 K, x2 = 0.4001 | 810.02 ± 0.72 | 1332 ± 1 | –
288.15 K, x2 = 0.4996 | 816.74 ± 0.73 | 1340.4 ± 1.1 | –
288.15 K, x2 = 0.6 | 824.16 ± 0.73 | 1349.4 ± 1.1 | –
288.15 K, x2 = 0.6999 | 832.36 ± 0.73 | 1359.3 ± 1.2 | –
288.15 K, x2 = 0.8 | 841.37 ± 0.74 | 1370 ± 1.2 | –
288.15 K, x2 = 0.9 | 851.27 ± 0.74 | 1382.2 ± 1.3 | –
293.15 K, x2 = 0.1015 | 789.39 ± 0.72 | 1292.1 ± 0.9 | 3.37 ± 0.03
293.15 K, x2 = 0.2005 | 794.63 ± 0.72 | 1298.5 ± 0.9 | 3.04 ± 0.03
293.15 K, x2 = 0.2999 | 800.29 ± 0.72 | 1305.4 ± 1 | 2.75 ± 0.03
293.15 K, x2 = 0.4001 | 806.56 ± 0.72 | 1313 ± 1 | 2.51 ± 0.03
293.15 K, x2 = 0.4996 | 813.23 ± 0.73 | 1321.1 ± 1.1 | 2.3 ± 0.03
293.15 K, x2 = 0.6 | 820.65 ± 0.73 | 1330.2 ± 1.1 | 2.12 ± 0.03
293.15 K, x2 = 0.6999 | 828.75 ± 0.73 | 1340.1 ± 1.2 | 1.98 ± 0.02
293.15 K, x2 = 0.8 | 837.7 ± 0.74 | 1350.9 ± 1.2 | 1.85 ± 0.02
293.15 K, x2 = 0.9 | 847.55 ± 0.74 | 1363 ± 1.3 | 1.74 ± 0.02
303.15 K, x2 = 0.1015 | 782.63 ± 0.72 | 1254.4 ± 0.9 | 2.68 ± 0.03
303.15 K, x2 = 0.2005 | 787.8 ± 0.72 | 1261.2 ± 0.9 | 2.44 ± 0.02
303.15 K, x2 = 0.2999 | 793.41 ± 0.72 | 1267.7 ± 1 | 2.23 ± 0.02
303.15 K, x2 = 0.4001 | 799.59 ± 0.72 | 1275.6 ± 1 | 2.05 ± 0.02
303.15 K, x2 = 0.4996 | 806.19 ± 0.73 | 1283.4 ± 1.1 | 1.89 ± 0.02
303.15 K, x2 = 0.6 | 813.53 ± 0.73 | 1292.4 ± 1.1 | 1.78 ± 0.02
303.15 K, x2 = 0.6999 | 821.53 ± 0.73 | 1302.3 ± 1.2 | 1.66 ± 0.02
303.15 K, x2 = 0.8 | 830.36 ± 0.74 | 1313.5 ± 1.2 | 1.56 ± 0.02
303.15 K, x2 = 0.9 | 840.1 ± 0.74 | 1325.2 ± 1.3 | 1.48 ± 0.02
313.15 K, x2 = 0.1015 | 775.87 ± 0.72 | 1217.8 ± 0.9 | 2.19 ± 0.02
313.15 K, x2 = 0.2005 | 780.97 ± 0.72 | 1224.6 ± 0.9 | 2 ± 0.02
313.15 K, x2 = 0.2999 | 786.51 ± 0.72 | 1231 ± 1 | 1.84 ± 0.02
313.15 K, x2 = 0.4001 | 792.62 ± 0.72 | 1238.9 ± 1 | 1.7 ± 0.02
313.15 K, x2 = 0.4996 | 799.14 ± 0.73 | 1246.6 ± 1.1 | 1.58 ± 0.02
313.15 K, x2 = 0.6 | 806.39 ± 0.73 | 1255.5 ± 1.1 | 1.49 ± 0.02
313.15 K, x2 = 0.6999 | 814.29 ± 0.73 | 1265.4 ± 1.2 | 1.4 ± 0.02
313.15 K, x2 = 0.8 | 823.01 ± 0.74 | 1276.7 ± 1.2 | 1.32 ± 0.02
313.15 K, x2 = 0.9 | 832.64 ± 0.74 | 1288.3 ± 1.3 | 1.25 ± 0.02
323.15 K, x2 = 0.1015 | 769.09 ± 0.72 | 1181.9 ± 0.9 | 1.82 ± 0.02
323.15 K, x2 = 0.2005 | 774.12 ± 0.72 | 1188.7 ± 0.9 | 1.67 ± 0.02
323.15 K, x2 = 0.2999 | 779.61 ± 0.72 | 1195.1 ± 1 | 1.55 ± 0.02
323.15 K, x2 = 0.4001 | 785.63 ± 0.72 | 1203 ± 1 | 1.44 ± 0.02
323.15 K, x2 = 0.4996 | 792.08 ± 0.73 | 1210.5 ± 1.1 | 1.37 ± 0.02
323.15 K, x2 = 0.6 | 799.24 ± 0.73 | 1219.5 ± 1.1 | 1.28 ± 0.02
323.15 K, x2 = 0.6999 | 807.04 ± 0.73 | 1229.4 ± 1.2 | 1.2 ± 0.02
323.15 K, x2 = 0.8 | 815.65 ± 0.74 | 1240.5 ± 1.2 | 1.14 ± 0.02
323.15 K, x2 = 0.9 | 825.16 ± 0.74 | 1252 ± 1.3 | 1.09 ± 0.02
333.15 K, x2 = 0.1015 | 762.29 ± 0.72 | 1147.1 ± 0.9 | 1.53 ± 0.02
333.15 K, x2 = 0.2005 | 767.25 ± 0.72 | 1153.6 ± 0.9 | 1.42 ± 0.02
333.15 K, x2 = 0.2999 | 772.68 ± 0.72 | 1160.3 ± 1 | 1.32 ± 0.02
333.15 K, x2 = 0.4001 | 778.62 ± 0.72 | 1167.9 ± 1 | 1.23 ± 0.02
333.15 K, x2 = 0.4996 | 784.99 ± 0.73 | 1175.5 ± 1.1 | 1.18 ± 0.02
333.15 K, x2 = 0.6 | 792.06 ± 0.73 | 1184.4 ± 1.1 | 1.11 ± 0.02
333.15 K, x2 = 0.6999 | 799.77 ± 0.73 | 1194.3 ± 1.2 | 1.04 ± 0.02
333.15 K, x2 = 0.8 | 808.26 ± 0.74 | 1205.1 ± 1.2 | 0.99 ± 0.022
333.15 K, x2 = 0.9 | 817.65 ± 0.74 | 1216.8 ± 1.3 | 0.945 ± 0.022

Settings | surface tension liquid-gas [mN/m]
x2 = 0.1015 | 24.4 ± 0.3
x2 = 0.2005 | 24.5 ± 0.3
x2 = 0.2999 | 24.7 ± 0.3
x2 = 0.4001 | 25.3 ± 0.3
x2 = 0.4996 | 25.6 ± 0.3
x2 = 0.6 | 25.8 ± 0.3
x2 = 0.6999 | 26.5 ± 0.4
x2 = 0.8 | 27.2 ± 0.4
x2 = 0.9 | 27.9 ± 0.4
